Entries after “also recorded” stand apart in the source; their conditions may differ.
Columns and labels:
[1] = test system: startle reflex and its prepulse inhibition in rats; experiment: Acoustic startle reactivity and prepulse inhibition (PPI) in rats; format: in vivo; settings: compound given 20 min before measurement, vs vehicle, FIG. 1
Description: (§1) In order to study the effect of alpha2-antagonists on startle reflex and its prepulse-inhibition, groups of rats (n=10/group) were pre-treated with the alpha2C-antagonist or vehicle 20 min before measurement of the acoustic startle reactivity and PPI in a test system designed for startle studies (SR-LAB, San Diego Instruments, CA, USA). In a subsequent experiment the effects of the alpha2-adrenoceptor subtype selective alpha2C-antagonist and or the subtype non-selective antagonist atipamezole (Haapalinna, A. et al., Naunyn-Schmiedeberg's Arch. Pharmacol. 356 (1997) 570-582) on PCP-induced PPI-disruption was studied. The antagonists were given 20 min, and PCP or vehicle 10 min before start of the startle measurements. The method otherwise corresponds to the procedure described in Sallinen, J. et al., J. Neurosci. 18 (1998) 3035-42.

[2] = test system: startle reflex and its prepulse inhibition in rats pretreated with the psychostimulant phencyclidine (PCP); experiment: PCP-induced PPI disruption, startle reflex and prepulse inhibition in rats pretreated with phencyclidine; format: in vivo; settings: FIG. 2; for effect on PCP-disrupted prepulse inhibition (PPI): antagonist 20 min and PCP 10 min before measurement, vs vehicle+PCP
Description: as §1

Row | Structure (SMILES) | effect on prepulse inhibition (PPI, sensorimotor gating) [1] | effect on startle reflex (startle reactivity to intense pulses without prepulses) [1] | effect on PCP-disrupted prepulse inhibition (PPI) [2] | effect of PCP on prepulse inhibition (PPI) ([2]; PCP given 10 min before measurement) | effect on startle reactivity per se ([2]; PCP experiment)
1 | CN1CCN(c2ccc(Nc3c4ccccc4nc4ccccc34)cc2)CC1 [JP-1302, acridin-9-yl-[4-(4-methylpiperazin-1-yl)-phenyl]amine] | enhanced sensorimotor gating (prepulse inhibition %); also recorded: increased PPI dose-dependently and effectively | without significantly affecting the startle reactivity; also recorded: did not affect the startle reflex per se | effectively counteracted; also recorded: especially clearly seen in the presence of PCP | – | –
2 | c1ccc(C2(N3CCCCC3)CCCCC2)cc1 [PCP, phencyclidine] | – | – | – | clearly disrupted the PPI | –
3 | CCC1(c2cnc[nH]2)Cc2ccccc2C1 [atipamezole] | – | – | had no effect on the PPI phenomenon | – | increased significantly the startle reactivity per se
